From PubChem BioAssay (NCI)
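Cells were grown in 96-well plates and exposed to each compound for 48 hours at five concentrations; endpoints were interpolated linearly between bracketing concentrations, or set to the highest concentration if not reached. Definition used: TGI = concentration required for complete inhibition of growth.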

Tests used:
Assay in all cases: NCI-60 cell line screen, 48 h
UO-31 renal = system: UO-31 renal
SK-OV-3 ovarian = system: SK-OV-3 ovarian
SK-MEL-5 melanoma = system: SK-MEL-5 melanoma
SNB-75 CNS = system: SNB-75 CNS
SK-MEL-28 melanoma = system: SK-MEL-28 melanoma
SW-620 colon = system: SW-620 colon
K-562 leukemia = system: K-562 leukemia
NCI-H522 lung = system: NCI-H522 lung
UACC-257 melanoma = system: UACC-257 melanoma
EKVX NSCLC = system: EKVX NSCLC
SR leukemia = system: SR leukemia
NCI-H460 lung = system: NCI-H460 lung
A498 renal = system: A498 renal
ACHN renal = system: ACHN renal
786-0 renal = system: 786-0 renal
A549 NSCLC = system: A549 NSCLC

Row | Structure (SMILES) | TGI (UO-31 renal) [µM] | TGI (SK-OV-3 ovarian) [µM] | TGI (SK-MEL-5 melanoma) [µM] | TGI (SNB-75 CNS) [µM] | TGI (SK-MEL-28 melanoma) [µM] | TGI (SW-620 colon) [µM] | TGI (K-562 leukemia) [µM] | TGI (NCI-H522 lung) [µM] | TGI (UACC-257 melanoma) [µM] | TGI (EKVX NSCLC) [µM] | TGI (SR leukemia) [µM] | TGI (NCI-H460 lung) [µM] | TGI (A498 renal) [µM] | TGI (ACHN renal) [µM] | TGI (786-0 renal) [µM] | TGI (A549 NSCLC) [µM]
1 | N#C/C(c1nc2ccccc2[nH]1)=c1\s/c(=C/c2ccccc2)c(=O)n1-c1ccccc1 | > 100 | > 100 | > 100 | > 100 | > 100 | > 100 | > 100 | > 100 | > 100 | > 100 | > 100 | > 100 | > 100 | > 100 | > 100 | > 100
2 | Cn1c(=O)c2c(nc3n2CCCC(=O)N3CCCCl)n(C)c1=O | > 100 | > 100 | > 100 | > 100 | > 100 | > 100 | > 100 | > 100 | > 100 | > 100 | > 100 | > 100 | > 100 | > 100 | > 100 | > 100
3 | C/C(O)=C(/C=N/C(=S)Nc1ccccc1)C(=O)Nc1ccccc1C | > 100 | > 100 | > 100 | > 100 | > 100 | > 100 | > 100 | > 100 | > 100 | > 100 | > 100 | > 100 | > 100 | > 100 | > 100 | > 100
4 | O=C1c2ccccc2CC12Cc1cc3c(cc1C2)CCC3 | > 100 | > 100 | 35.8 | > 100 | > 100 | > 100 | > 100 | > 100 | 91.3 | > 100 | 57.5 | > 100 | > 100 | > 100 | > 100 | > 100
5 | CC(C)C1=Cc2ccc3c(c2C(=O)C1=O)CCCC3 | 6.74 | 30.5 | 25.6 | 4.76 | 15.8 | 14 | 14.1 | 18.1 | 6.57 | 19.2 | 2.77 | 26.6 | 18.5 | 7.13 | 6.02 | 34.4
6 | COc1cccc(/C=C2\CCC(CN(C)C)C2=O)c1 (configuration not stated) | 20.1 | 29.2 | 24.8 | 38.2 | 8.52 | 8.52 | 4.89 | 6.15 | 12.7 | 42.1 | 8.43 | 35 | 31.5 | 25.5 | 8.57 | 42.7
7 | COC(=O)C1(Cc2ccccc2)Cc2ccccc2C1O (configuration not stated) | > 100 | > 100 | > 100 | > 100 | > 100 | > 100 | > 100 | > 100 | > 100 | > 100 | > 100 | > 100 | > 100 | > 100 | > 100 | > 100
8 | O=C(N/C(=C\c1ccccc1)c1nc2ccccc2c(=O)o1)c1ccccc1 | 97.3 | > 100 | > 100 | > 86.3 | > 100 | > 100 | > 100 | > 100 | > 72.6 | > 100 | > 100 | > 100 | > 100 | > 100 | > 100 | > 100
9 | Cc1ccc(NC(=O)C2C3C=CC(O3)C2C(=O)O)cc1 (configuration not stated) | > 100 | > 100 | > 100 | > 100 | > 100 | 26.8 | > 100 | > 100 | > 100 | > 100 | > 100 | > 100 | > 100 | > 100 | > 100 | > 100
10 | FC(F)(F)c1ccc2c(-c3cc[nH]c3)ccnc2c1 | 48.3 | > 100 | 43.3 | 33.8 | > 100 | > 100 | > 100 | 94.9 | > 100 | > 100 | 84.9 | > 100 | 51.8 | > 100 | 32.1 | 75
11 | Cc1cc(C)c(/C=C2\C(=O)Nc3ccccc32)[nH]1 | > 100 | > 100 | > 100 | > 100 | > 100 | > 100 | > 100 | > 100 | > 100 | > 100 | > 100 | > 100 | > 100 | > 100 | > 100 | > 100
12 | Cc1cc(Cl)ccc1NC(=O)/C(=N\NC(C)(C)C)C(C#N)c1nc(-c2ccc([N+](=O)[O-])cc2)cs1 (configuration not stated) | > 100 | > 100 | > 100 | > 100 | > 100 | > 100 | > 100 | > 100 | > 100 | > 100 | > 100 | > 100 | > 100 | > 100 | > 100 | > 100
13 | NC(=O)N/N=C\CC(O)(C(F)(F)Cl)C(F)(F)Cl | > 10 | > 10 | > 10 | > 10 | > 10 | > 10 | > 10 | > 10 | > 10 | > 10 | > 10 | > 10 | > 10 | > 10 | > 10 | > 10
14 | COCN1C(=O)[C@@H]2C[C@@H](O)CN2C(=O)c2ccccc21 | > 100 | > 100 | > 100 | > 100 | > 100 | > 100 | > 100 | > 100 | > 100 | > 100 | > 100 | > 100 | > 100 | > 100 | > 100 | > 100
15 | O=S(=O)(CC(Cl)c1ccccc1)c1nc2ccccc2s1 (configuration not stated) | 29.4 | 32.9 | 16.7 | 27.8 | 29.7 | 20.7 | 7.43 | 4.89 | 23.2 | 35.4 | 4.55 | 52.4 | 35.1 | 29.1 | 19.4 | 43.1
16 | O=C(CCN1CCCCC1)Nc1ccc2c(c1)C(=O)c1ccc(NC(=O)CCN3CCCCC3)cc1C2=O | 32.8 | 26.4 | 10.2 | 8 | 32.8 | 4.62 | 7.64 | 32.7 | 30.5 | 30.2 | 6.49 | 3 | 26.7 | 23.9 | 3.8 | 10.3
17 | O=S1Nc2cccc(C(F)(F)F)c2S1 (configuration not stated) | > 100 | > 100 | > 100 | 82.8 | > 100 | 23.8 | > 100 | > 100 | > 100 | > 100 | > 100 | > 100 | 97.3 | > 100 | > 100 | > 100
